# Results as given in patent US20170304228A1, “NEW INDICATION OF CINACALCET HCL PHARMACEUTICAL COMPOSITION FOR TREATING CANCER” (LAUNX BIOMEDICAL CO., LTD., priority 2014, published 2017).
# “And” between values parts separate entries of the source, which are not always exact repeats. Equal values may be shown once. Where a name gives a salt, the structure may show the parent alone. Read-outs that look alike come from different tables or passages of the source.
# Columns and labels:
# A375 = assay: Cell viability analysis (WST-1), A375; format: cell-based; conditions: Homo sapiens, read-out: survival rate (viability) of cells
# Protocol: (§1) The cell numbers were counted and reseed as 2×10^6 in culture plate/flask. Then, the culture medium were added to a volume of 10 ml, and the cells were cultured for 2-3 days. Then, the cells were suspended for loading into 96-well plates. The number of cells was 3000 and the volume of the culture medium was 100 μl each well.
# (§2) Removing the original culture medium from 96-well plate. Then add 100 μl of commercially drug at a concentration of 10 μM per well. After 72 hours, add the diluted WST-1 reagent to the well with 100 μl/well, and the diluted WST-1 reagent was acquired from the dilution of 9:1 medium and WST-1 stock reagent. Finally, the total volume of each well was 200 μl/well. Culture the 96-well plate at 37° C. for 30 to 90 minutes. Detecting and calculate the survival rate of each cancer cells with an ELISA reader at OD450 nm. The lower viability of cancer cells represents better inhibition effect via the Cinacalcet HCl drug. Otherwise, the higher viability of cancer cells represents worse inhibition effect via the Cinacalcet HCl drug.
# This inhibition test of Cinacalcet HCl on other cancer cells were using osteosarcoma cell line U2OS (Table 14), skin cancer cell lines A375 and BCC (Table 15). The inhibitory tests of Cinacalcet HCl were performed 4 times for each cell lines and then the average value of the inhibitory tests was calculated.
# colorectal cancer cells = assay: Summary of cell viability, colorectal cancer cells; format: cell-based; conditions: 72 hours, read-out: Inhibitory effect
# Protocol: as §1, §2
# (§3) Cinacalcet HCl is having different inhibitory effect on different tumor cell type even in the same cancer. […] (FIG. 1)
# T24 = assay: Cell viability analysis (WST-1), T24; format: cell-based; conditions: Homo sapiens, read-out: survival rate (viability) of cells
# Protocol: as §1, §2
# (§4) This inhibition test of Cinacalcet HCl on abdominal-related cancer cells were using bladder cancer cell line TSGH and T24 (Table 3), cervical cancer cell lines HeLa and C-33A (Table 4), renal cancer cell line 786-O (Table 5). The inhibitory tests of Cinacalcet HCl were performed 4 times for each cell lines and then the average value of the inhibitory tests was calculated.
# bladder cancer cells = assay: Summary of cell viability, bladder cancer cells; format: cell-based; conditions: 72 hours, read-out: Inhibitory effect
# Protocol: as §1, §2, §3
# [1] = Cell viability analysis (WST-1), normal pulmonary epithelial cell line BEAS-2B; format: cell-based; conditions: human, BEAS-2B cells (normal pulmonary epithelial cell line)
# Text: Subculture the different types of cancer cells. The cancer cells includes lung cancer, gastric cancer, hepatic cancer, colon cancer, skin cancer, cervical cancer, prostate cancer, bladder cancer, breast cancer, leukemia, pancreatic cancer, ovarian cancer, tongue cancer, osteosarcoma, and renal cancer. The normal cells used in the control group included kidney cell (HEK293) and human bronchial epithelial cell line BEAS-2B (as shown in Table 1).
# as §1, §2
# This inhibition test of Cinacalcet HCl on normal cells were using normal kidney cell line HEK293 (Table 16), normal pulmonary epithelial cell lines […] BEAS-2B (Table 17). The inhibitory tests of Cinacalcet HCl were performed 4 times for each cell lines and then the average value of the inhibitory tests was calculated The results were shown in Tables 16 and Tables 17.
# gastric cancer cells = assay: Summary of cell viability, gastric cancer cells; format: cell-based; conditions: 72 hours, read-out: Inhibitory effect
# Protocol: as §1, §2, §3
# TSGH = assay: Cell viability analysis (WST-1), TSGH; format: cell-based; conditions: read-out: survival rate (viability) of cells
# Protocol: as §1, §2, §4
# [2] = Animal model test of gastric cancer, body weight and health status; format: in vivo, mice; conditions: for weight: single mice A, B, C, hydrochloride
# Protocol: In this invention, the female mice were(BALB/cAnN.Cg-Foxnl™/CrlNarl) and purchased from National Laboratory Animal Center (Taiwan). The weight of the mice were 21±1 g. These mice were subcutaneously injected with gastric cancer cells (AGS) and then put these mice into different cages at random. The drug test experiment was divided into three groups, include “control group”, “low dose group (100 mg/kg/day)”, “high dose group (200 mg/kg/day)”. These mice were then injected test drug intraperitoneally once daily […]. The tumor sizes and body weight were measured twice a week. The tumor sizes were measured and calculated by formula: (L×W^2)/2. L represents the tumor longest length. W represents the tumor shortest diameter.
# MDA-MB-231 = assay: Cell viability analysis (WST-1), MDA-MB-231; format: cell-based; conditions: Homo sapiens, read-out: survival rate (viability) of cells
# Protocol: as §1, §2
# This inhibition test of Cinacalcet HCl on endocrine-related cancer cells were using prostate cancer cell lines PC-3 and LNCap (Table 6), breast cancer cell lines MCF7 and MDA-MB-231 (Table 7), and ovarian cancer cell lines NIH-OVCAR-3 and TOV-21G (Table 8). The inhibitory tests of Cinacalcet HCl were performed 4 times for each cell lines and then the average value of the inhibitory tests was calculated.
# LoVo = assay: Cell viability analysis (WST-1), LoVo; format: cell-based; conditions: Homo sapiens, read-out: survival rate (viability) of cells
# Protocol: as §1, §2
# This inhibition test of Cinacalcet HCl on gastrointestinal tract-related cancer cells were using gastric cancer cell lines AGS and MKN-45 (Table 9), hepatic cancer cell lines HepG2 and Hep3B (Table 10), colorectal cancer cell lines HCT116-wt and LoVo (Table 11), pancreatic cancer cell line AsPC-1 and BxPC-3(Table 12), tongue cancer cell line SAS (Table 13). The inhibitory tests of Cinacalcet HCl were performed 4 times for each cell lines and then the average value of the inhibitory tests was calculated.
# prostate cancer cells = assay: Summary of cell viability, prostate cancer cells; format: cell-based; conditions: 72 hours, read-out: Inhibitory effect
# Protocol: as §1, §2, §3
compound,measurement,setting,value
"C[C@@H](NCCCc1cccc(C(F)(F)F)c1)c1cccc2ccccc12 [Cinacalcet HCl, Cinacalcet hydrochloride]",viability at 10 µM,"A375; A-375, 10 μM, 72 hours, test 0602-30 min",117%
same,viability at 10 µM,"A375; A-375, 10 μM, 72 hours, test 0605-10 min",95.6%
same,viability at 10 µM,"A375; A-375, 10 μM, 72 hours, test 0607-10 min",94.4%
same,viability at 10 µM,"A375; A-375, 10 μM, 72 hours, test 0609-10 min",108%
same,viability at 10 µM,"A375; A-375, 72 h, 10 μM, average of tests",104%
same,viability at 10 µM,colorectal cancer cells,74.4%
same,viability at 10 µM,"T24; T-24, 10 μM, 72 hours, test T24-1-30 min",71.1%
same,viability at 10 µM,"T24; T-24, 10 μM, 72 hours, test T24-2-20 min",133%
same,viability at 10 µM,"T24; T-24, 10 μM, 72 hours, test T24-3-20 min",177%
same,viability at 10 µM,"T24; T-24, 10 μM, 72 hours, test T24-4-20 min",103%
same,viability at 10 µM,"T24; T-24, 72 h, 10 μM, average of tests",121%
same,viability at 10 µM,bladder cancer cells,90.4%
same,"viability at 72 h, 10 µM","[1]; average of tests, read-out: survival rate (viability) of cells",76.1%
same,"viability at 72 h, 10 µM","[1]; summary, normal pulmonary epithelial cell line, read-out: Inhibitory effect",76.1%
same,"viability at 72 h, 10 µM","[1]; test 0510-10 min, read-out: survival rate (viability) of cells",70.5%
same,"viability at 72 h, 10 µM","[1]; test 0512-10 min, read-out: survival rate (viability) of cells",72.9%
same,"viability at 72 h, 10 µM","[1]; test 0515-10 min, read-out: survival rate (viability) of cells",72.2%
same,"viability at 72 h, 10 µM","[1]; test 0517-10 min, read-out: survival rate (viability) of cells",89%
same,viability at 10 µM,gastric cancer cells,123%
same,viability at 10 µM,"TSGH; 72 h, average of tests",59.8%
same,viability at 10 µM,"TSGH; 72 hours, test 0510-10 min",57.3%
same,viability at 10 µM,"TSGH; 72 hours, test 0512-10 min",73.2%
same,viability at 10 µM,"TSGH; 72 hours, test 0515-10 min",74.7%
same,viability at 10 µM,"TSGH; 72 hours, test 0517-10 min",33.9%
same,weight,"[2]; Low dose (100 mg/kg/day) intraperitoneally, First measurement, 100 mg/kg/day",20 g and 16 g and 21 g
same,weight,"[2]; Low dose (100 mg/kg/day) intraperitoneally, Fourth measurement, 100 mg/kg/day",22 g and 23 g
same,weight,"[2]; Low dose (100 mg/kg/day) intraperitoneally, Second measurement, 100 mg/kg/day",21 g and 22 g and 19 g
same,weight,"[2]; Low dose (100 mg/kg/day) intraperitoneally, Third measurement, 100 mg/kg/day",23.5 g and 21 g
same,health status / death of tested mice during the treatment,[2]; both high and low doses,without death
same,weight of mice during the experiment,[2]; both low dose and high dose,did not show a significant decrease
same,weight,"[2]; high dose (200 mg/kg/day) intraperitoneally, Fourth measurement, 200 mg/kg/day",23 g and 20 g
same,weight,"[2]; high dose (200 mg/kg/day) intraperitoneally, Second measurement, 200 mg/kg/day",18.5 g and 21 g and 19 g
same,weight,"[2]; high dose (200 mg/kg/day) intraperitoneally, Third measurement, 200 mg/kg/day",19 g and 22 g and 18.5 g
same,viability at 10 µM,"MDA-MB-231; MDA-MB-231, 10 μM, 72 hours, test 0612-10 min",92.3%
same,viability at 10 µM,"MDA-MB-231; MDA-MB-231, 10 μM, 72 hours, test 0614-10 min",84.9%
same,viability at 10 µM,"MDA-MB-231; MDA-MB-231, 10 μM, 72 hours, test 0616-10 min",60.8%
same,viability at 10 µM,"MDA-MB-231; MDA-MB-231, 10 μM, 72 hours, test 0619-10 min",92.8%
same,viability at 10 µM,"MDA-MB-231; MDA-MB-231, 72 h, 10 μM, average of tests",82.7%
same,viability at 10 µM,"LoVo; 72 h, average of tests",93.4%
same,viability at 10 µM,"LoVo; 72 hours, test 0616-10 min",73.9%
same,viability at 10 µM,"LoVo; 72 hours, test 0619-10 min",125%
same,viability at 10 µM,"LoVo; 72 hours, test 0621-10 min",90.4%
same,viability at 10 µM,"LoVo; 72 hours, test 0623-10 min",84.2%
same,viability at 10 µM,prostate cancer cells,81.7%
